In patent US20230391765A1, “HETEROBIFUNCTIONAL COMPOUNDS AS DEGRADERS OF ENL” (ICAHN SCHOOL OF MEDICINE AT MOUNT SINAI, priority 2020, published 2023):
Each block holds one compound with its values, some of them ahead of it.

Legend:
Type in all cases: cell-based
ENL [1] = target: T1, ENL (Homo sapiens, UniProt Q03111); test: Western blot of ENL protein levels in MV4; 11 cells; settings: 11 cells; for effect of proteasome inhibitor MG132 on the ENL degradation induced by the degrader: 1 μM degrader with or without 1 μM MG132 for 6 h; for ENL protein level after long treatment: 1 μM for 48 and 72 h
T1 construct: Cells were lysed and expression of endogenous ENL was assessed by Western blot analysis; host or cells: MV4;11
T1 sequence (Q03111 1-559): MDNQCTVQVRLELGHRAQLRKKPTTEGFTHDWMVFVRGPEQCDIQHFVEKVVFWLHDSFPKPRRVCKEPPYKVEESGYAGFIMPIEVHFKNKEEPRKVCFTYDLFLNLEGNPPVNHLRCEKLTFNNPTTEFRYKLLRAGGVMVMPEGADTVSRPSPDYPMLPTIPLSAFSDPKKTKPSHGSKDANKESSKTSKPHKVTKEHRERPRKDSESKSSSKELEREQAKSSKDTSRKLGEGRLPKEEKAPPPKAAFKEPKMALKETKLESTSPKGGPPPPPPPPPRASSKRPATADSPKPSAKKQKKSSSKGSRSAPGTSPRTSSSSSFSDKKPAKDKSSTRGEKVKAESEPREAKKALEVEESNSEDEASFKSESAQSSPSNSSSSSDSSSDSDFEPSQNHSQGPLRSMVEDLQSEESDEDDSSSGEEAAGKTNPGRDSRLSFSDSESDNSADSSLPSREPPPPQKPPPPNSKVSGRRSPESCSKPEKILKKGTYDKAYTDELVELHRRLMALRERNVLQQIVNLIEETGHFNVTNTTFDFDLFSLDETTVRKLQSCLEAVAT
Description: MV4; 11 cells were treated with DMSO or the indicated compounds (the same panel of ENL degraders as shown in FIG. 4) at 1 μM and 10 μM for 24 h. Cells were lysed and expression of ENL was assessed by Western blot analysis.
DMSO treated cells were used as control.
MV4; 11 cells were treated with LQ076-122, or LQ081-107 at 0.3, 1, 3, 10, and 30 μM for 24 h. DMSO treated cells were used as control. Cells were lysed and expression of ENL and GAS41 was assessed by Western analysis.
MV4; 11 cells were treated with DMSO or the indicated compounds at 1 μM and 10 μM for 6 h. Cells were lysed and expression of endogenous ENL was assessed by Western blot analysis.
Cells were treated with 1 μM of ENL degrader with or without 1 μM proteasome inhibitor MG132 for 6 h.
(§1) ENL degraders were dissolved in DMSO. DMSO with no degraders was used as the control. 1×10^6 leukemia cells were seeded in 5 mL medium. For prescreening of compounds, each test compound was added to the medium at 1 μM and 10 μM. Cells were collected after 24 h treatment. For the concentration-dependent treatment, candidate compounds were added to the medium at a series of concentration as indicated in figures. Cells were collected after 24 h treatment. For the time-course treatment, candidate compounds were added to the medium at a final concentration of 4 μM (MV4; 11 cells) or 8 μM (MOLM13 cells). Cells were collected at the indicated timepoints (in hours: 12, 16, 20, 24 and 36 h).
(§2) After ENL degrader treatment, cells were collected, lysed, and total cell lysates were used for Western blot. The following primary antibodies were used: ENL (Cell Signaling Technology), GAS41 (Santa Cruz), GAPDH (Santa Cruz), β-actin (Sigma). Blots were detected using HRP-conjugated secondary antibodies.

[2] = test system: ENL-dependent MV4; 11 cells; test: Cell viability (CellTiter-Glo), MV4; 11 cells; settings: 11 cells, 1.25, 2.5, 5 and 10 μM for 72 h
Description: MV4; 11 (FIG. 13A), MOLM13 (FIG. 13B) and Jurkat (FIG. 13C) cells were seeded at 2×10^5 cells/mL density and treated with DMSO or indicated compounds 0.5, 1, 2 and 4 μM for 72 h. Cell viability was measured using CellTiter-Glo reagent (Promega) and relative cell viability was calculated by normalization to DMSO samples.
(§3) ENL-dependent MV4; 11 cells were seeded at 2×10^5 cells/mL density and treated with DMSO or the indicated compounds at 0, 1.25, 2.5, 5 and 10 μM for 72 h. Cell viability was measured using CellTiter-Glo reagent (Promega) and relative cell viability was calculated by normalization to DMSO samples.
as §3, with “11 and ENL-independent Jurkat” for “11”, “or” for “or the”, “10 nM, 100 nM, 1 μM” for “0, 1.25, 2.5, 5”, “3 days (A) or 6 days (B).” for “72 h.”
MV4; 11 or MOLM13 cells were seeded at 0.2×10^6 cells/mL density. Cells were treated with DMSO or ENL degraders at indicated concentrations. Each treatment was done in triplicates. After 72 h treatment, 100 μL of cell suspension from each treatment was mixed with 25 μL of CellTiter-Glo reagent (Promega) and incubated for 10 min before the luminescence signals were detected on a plate reader.

ENL [3] = target: T1, ENL; test: Western blot of ENL protein levels in MOLM13 cells; settings: for ENL protein level after long treatment: 1 μM for 48 and 72 h
Description: MOLM13 cells were treated with LQ076-122 or LQ081-108 at 0, 0.25, 0.5, 1, 1.5, 2, 2.5, 3, 4 and 8 μM for 24 h.
MOLM13 cells were treated with DMSO or 8 μM of LQ076-122 for 12, 16, 20, 24 and 36 h.
MV4; 11, MOLM13 and Jurkat cells were treated with LQ108-69, LQ108-71, LQ108-72, LQ126-62 and LQ126-63 at 0, 1 nM, 10 nM, 100 nM, 1 μM, and 10 μM doses for 6 h. DMSO was used as negative control.
as §1, §2

ENL [4] = target: T1, ENL; test: Western blot of ENL protein levels in Jurkat cells; settings: for ENL protein level after long treatment: 1 μM for 48 and 72 h
Description: […] DMSO was used as negative control.
as §2

Compound: Cc1ncsc1-c1ccc(CNC(=O)[C@@H]2C[C@@H](O)CN2C(=O)[C@@H](NC(=O)CCCCCCCCCNC(=O)c2ccc(C(=O)Nc3ccc4[nH]c(CN5CCC[C@@H]5C)nc4c3)cc2)C(C)(C)C)cc1 [LQ076-121, N^1-(10-(((S)-1-((2S,4R)-4-hydroxy-2-((4-(4-methylthiazol-5-yl)benzyl)carbamoyl)pyrrolidin-1-yl)-3,3-dimethyl-1-oxobutan-2-yl)amino)-10-oxodecyl)-N^4-(2-(((S)-2-methylpyrrolidin-1-yl)methyl)-1H-benzo[d]imidazol-5-yl)terephthalamide]
reduction of ENL protein levels (ENL [1]; 10 μM, 24 h): effective in reducing ENL protein levels

Compound: Cc1ncsc1-c1ccc(CNC(=O)[C@@H]2C[C@@H](O)CN2C(=O)[C@@H](NC(=O)C2(F)CC2)C(C)(C)C)c(OCC(=O)NCCCCCCCNC(=O)c2ccc3c(c2)[C@H](NC(=O)c2cc(-c4ccc(C(=O)N(C)C)c(O)c4)on2)CC3)c1 [LQ108-63, 5-(4-(dimethylcarbamoyl)-3-hydroxyphenyl)-N-((R)-6-((7-(2-(2-(((2S,4R)-1-((S)-2-(1-fluorocyclopropane-1-carboxamido)-3,3-dimethylbutanoyl)-4-hydroxypyrrolidine-2-carboxamido)methyl)-5-(4-methylthiazol-5-yl)phenoxy)acetamido)heptyl)carbamoyl)-2,3-dihydro-1H-inden-1-yl)isoxazole-3-carboxamide]
effect of proteasome inhibitor MG132 on the ENL degradation induced by the degrader (ENL [1]): partially blocks the ENL degradation

Compound: Cc1ncsc1-c1ccc([C@H](CC(=O)NCCCCCCNC(=O)c2ccc3c(c2)[C@H](NC(=O)c2cc(-c4ccc(C(=O)N(C)C)c(O)c4)on2)CC3)NC(=O)[C@@H]2C[C@@H](O)CN2C(=O)[C@@H](NC(=O)C2(F)CC2)C(C)(C)C)cc1 [LQ108-69, 5-(4-(dimethylcarbamoyl)-3-hydroxyphenyl)-N—((R)-6-((6-((S)-3-((2S,4R)-1-((S)-2-(1-fluorocyclopropane-1-carboxamido)-3,3-dimethylbutanoyl)-4-hydroxypyrrolidine-2-carboxamido)-3-(4-(4-methylthiazol-5-yl)phenyl)propanamido)hexyl)carbamoyl)-2,3-dihydro-1H-inden-1-yl)isoxazole-3-carboxamide]
suppression of cell growth (relative cell viability) [2]: significantly suppressed MV4; 11 cell growth at low micromolar concentration
reduction of ENL protein levels (ENL [3]; 1 nM to 10 μM for 6 h): reduced ENL protein levels in a concentration-dependent manner
ENL protein level after long treatment (ENL [3]): maintained the ENL protein at low levels
reduction of ENL protein levels (ENL [4]; 1 nM to 10 μM for 6 h): reduced ENL protein levels in a concentration-dependent manner
ENL protein level after long treatment (ENL [4]): maintained the ENL protein at low levels
reduction of ENL protein levels (ENL [1]; 1 nM to 10 μM for 6 h): reduced ENL protein levels in a concentration-dependent manner
effect of proteasome inhibitor MG132 on the ENL degradation induced by the degrader (ENL [1]): partially blocks the ENL degradation
ENL protein level after long treatment (ENL [1]): maintained the ENL protein at low levels

Compound: Cc1ncsc1-c1ccc([C@H](CC(=O)NCCCCCCCNC(=O)c2ccc3c(c2)[C@H](NC(=O)c2cc(-c4ccc(C(=O)N(C)C)c(O)c4)on2)CC3)NC(=O)[C@@H]2C[C@@H](O)CN2C(=O)[C@@H](NC(=O)C2(F)CC2)C(C)(C)C)cc1 [LQ108-70, 5-(4-(dimethylcarbamoyl)-3-hydroxyphenyl)-N—((R)-6-((7-((S)-3-((2S,4R)-1-((S)-2-(1-fluorocyclopropane-1-carboxamido)-3,3-dimethylbutanoyl)-4-hydroxypyrrolidine-2-carboxamido)-3-(4-(4-methylthiazol-5-yl)phenyl)propanamido)heptyl)carbamoyl)-2,3-dihydro-1H-inden-1-yl)isoxazole-3-carboxamide]
suppression of cell growth (relative cell viability) [2]: significantly suppressed MV4; 11 cell growth at low micromolar concentration
ENL protein level after long treatment (ENL [3]): maintained the ENL protein at low levels
ENL protein level after long treatment (ENL [4]): maintained the ENL protein at low levels
effect of proteasome inhibitor MG132 on the ENL degradation induced by the degrader (ENL [1]): partially blocks the ENL degradation
ENL protein level after long treatment (ENL [1]): maintained the ENL protein at low levels

More lines, now with the values ahead:

reduction of ENL protein levels (ENL [1]; 10 μM, 24 h): effective in reducing ENL protein levels
Compound: Cn1ncc2cc(C(=O)Nc3ccc4[nH]c(CN5CCC(CCNC(=O)CCCCCCNc6cccc7c6C(=O)N(C6CCC(=O)NC6=O)C7=O)C5)nc4c3)ccc21 (stereo not shown) [LQ076-98, N-(2-((3-(2-(7-((2-(2,6-dioxopiperidin-3-yl)-1,3-dioxoisoindolin-4-yl)amino)heptanamido)ethyl)pyrrolidin-1-yl)methyl)-1H-benzo[d]imidazol-5-yl)-1-methyl-1H-indazole-5-carboxamide]

reduction of ENL protein levels (ENL [1]; 10 μM, 24 h): effective in reducing ENL protein levels
Compound: Cn1ncc2cc(C(=O)Nc3ccc4[nH]c(CN5CCC(CCNC(=O)CCCCCCCNc6cccc7c6C(=O)N(C6CCC(=O)NC6=O)C7=O)C5)nc4c3)ccc21 (stereo not shown) [LQ076-99, N-(2-((3-(2-(8-((2-(2,6-dioxopiperidin-3-yl)-1,3-dioxoisoindolin-4-yl)amino)octanamido)ethyl)pyrrolidin-1-yl)methyl)-1H-benzo[d]imidazol-5-yl)-1-methyl-1H-indazole-5-carboxamide]

reduction of ENL protein levels (ENL [1]; 10 μM, 24 h): effective in reducing ENL protein levels
Compound: Cc1ncsc1-c1ccc(CNC(=O)[C@@H]2C[C@@H](O)CN2C(=O)[C@@H](NC(=O)CCCCCCCCNC(=O)c2ccc(C(=O)Nc3ccc4[nH]c(CN5CCC[C@@H]5C)nc4c3)cc2)C(C)(C)C)cc1 [LQ076-120, N^1-(9-(((S)-1-((2S,4R)-4-hydroxy-2-((4-(4-methylthiazol-5-y)benzyl)carbamoyl)pyrrolidin-1-yl)-3,3-dimethyl-1-oxobutan-2-yl)amino)-9-oxononyl)-N^4-(2-(((S)-2-methylpyrrolidin-1-yl)methyl)-1H-benzo[d]imidazol-5-yl)terephthalamide]

reduction of ENL protein levels (ENL [1]; 10 μM, 24 h): effective in reducing ENL protein levels
Compound: C[C@H]1CCCN1Cc1nc2cc(NC(=O)c3ccc(C(=O)NCCCCCCCCNc4cccc5c4C(=O)N(C4CCC(=O)NC4=O)C5=O)cc3)ccc2[nH]1 (stereo partly drawn) [LQ076-134, N^1-(8-((2-(2,6-dioxopiperidin-3-yl)-1,3-dioxoisoindolin-4-yl)amino)octyl)-N^4-(2-(((S)-2-methylpyrrolidin-1-yl)methyl)-1H-benzo[d]imidazol-5-yl)terephthalamide]
